Our source for the EC50 values is patent publication US20260048047A1, “SMALL-MOLECULE ACTIVATORS OF MYCOBACTERIUM TUBERCULOSIS ADENYLYL CYCLASE” (priority 2022, published 2026).

Structures are written as SMILES. Where only a bound is given, the exact number is not on record here.

For the assay, the system named is M. tuberculosis. As to the kind of experiment: Extracellular activity against M. tuberculosis in cholesterol media (Alamar Blue reduction assay). The assay is classed as cell-based, Mycobacterium tuberculosis. Particulars: Mycobacterium tuberculosis, 240 h, 7H12-Cholesterol media, 10 days; read-out: Cholesterol broth: alamar blue--EC50. (In general: Resazurin is reduced to fluorescent resorufin, in cell work by metabolically active cells.)

`Cc1nonc1CC(=O)N1CCC(c2nc(-c3ccc(OC(F)(F)F)cc3)no2)CC1` [Compound 102, 2-(4-methyl-1,2,5-oxadiazol-3-yl)-1-(4-(3-(4-(trifluoromethoxy)phenyl)-1,2,4-oxadiazol-5-yl)piperidin-1-yl)ethan-1-one]: the EC50 worked out at 167 nM.
For `Cc1nonc1CC(=O)N1CCC(c2nc(-c3cccc(OC(F)(F)F)c3)no2)CC1` [Compound 103, 2-(4-methyl-1,2,5-oxadiazol-3-yl)-1-(4-(3-(3-(trifluoromethoxy)phenyl)-1,2,4-oxadiazol-5-yl)piperidin-1-yl)ethan-1-one], the concentration for a half-maximal effect (EC50) stood at 383 nM.
To `Cc1nonc1CC(=O)N1CCC(c2nc(-c3ccccc3OC(F)(F)F)no2)CC1` [Compound 104, 2-(4-methyl-1,2,5-oxadiazol-3-yl)-1-(4-(3-(2-(trifluoromethoxy)phenyl)-1,2,4-oxadiazol-5-yl)piperidin-1-yl)ethan-1-one] belongs 2960 nM.
For `Cc1nonc1CC(=O)N1CCC(c2nc(-c3ccc(Cl)c(C(F)(F)F)c3)no2)CC1` [Compound 105, 1-(4-(3-(4-chloro-3-(trifluoromethyl)phenyl)-1,2,4-oxadiazol-5-yl)piperidin-1-yl)-2-(4-methyl-1,2,5-oxadiazol-3-yl)ethan-1-one], the EC50 was determined as 744 nM.
To `Cc1nonc1CC(=O)N1CCC(c2nc(-c3ccc(C(F)(F)F)cc3)no2)CC1` [Compound 106, 2-(4-methyl-1,2,5-oxadiazol-3-yl)-1-(4-(3-(4-(trifluoromethyl)phenyl)-1,2,4-oxadiazol-5-yl)piperidin-1-yl)ethan-1-one] belongs 754 nM.
To `Cc1nonc1CC(=O)N1CCC(c2nc(-c3ccc(OC(F)F)cc3)no2)CC1` [Compound 108, 1-(4-(3-(4-(difluoromethoxy)phenyl)-1,2,4-oxadiazol-5-yl)piperidin-1-yl)-2-(4-methyl-1,2,5-oxadiazol-3-yl)ethan-1-one] belongs 716 nM; to `Cc1nonc1CC(=O)N1CCC(c2nc(C3CCC(F)(F)C3)no2)CC1` (centres unmarked) [Compound 109, 1-(4-(3-(3,3-difluorocyclopentyl)-1,2,4-oxadiazol-5-yl)piperidin-1-yl)-2-(4-methyl-1,2,5-oxadiazol-3-yl)ethan-1-one], 3250 nM.
Take `Cc1nonc1CC(=O)N1CCC(c2nc(C3CCC(F)(F)CC3)no2)CC1` [Compound 110, 1-(4-(3-(4,4-difluorocyclohexyl)-1,2,4-oxadiazol-5-yl)piperidin-1-yl)-2-(4-methyl-1,2,5-oxadiazol-3-yl)ethan-1-one]: the half-maximal effective concentration (EC50) came to 969 nM.
To `Cc1nonc1CC(=O)N1CCC(O)(c2nc(C3CCC(F)(F)CC3)no2)CC1` [Compound 111, 1-(4-(3-(4,4-difluorocyclohexyl)-1,2,4-oxadiazol-5-yl)-4-hydroxypiperidin-1-yl)-2-(4-methyl-1,2,5-oxadiazol-3-yl)ethan-1-one] belongs more than 10000 nM; to `Cc1nonc1CC(=O)N1CCC(c2nc(C3CCCC(F)(F)C3)no2)CC1` (centres unmarked) [Compound 112, 1-(4-(3-(3,3-difluorocyclohexyl)-1,2,4-oxadiazol-5-yl)piperidin-1-yl)-2-(4-methyl-1,2,5-oxadiazol-3-yl)ethan-1-one], 2670 nM; to `Cc1nonc1CC(=O)N1CCC(c2nc([C@@H]3CC[C@H](F)C3)no2)CC1` [Compound 113, 1-(4-(3-((1R,3S)-3-fluorocyclopentyl)-1,2,4-oxadiazol-5-yl)piperidin-1-yl)-2-(4-methyl-1,2,5-oxadiazol-3-yl)ethan-1-one], more than 25000 nM.
Next, `Cc1nonc1CC(=O)N1CCC(c2nc([C@@H]3CC[C@@H](F)C3)no2)CC1` [Compound 114, 1-(4-(3-((1R,3R)-3-fluorocyclopentyl)-1,2,4-oxadiazol-5-yl)piperidin-1-yl)-2-(4-methyl-1,2,5-oxadiazol-3-yl)ethan-1-one]: 7040 nM.
To `Cc1nonc1CC(=O)N1CCC(c2nc(C3CCC(F)CC3)no2)CC1` (centres unmarked) [Compound 115, 1-(4-(3-(4-fluorocyclohexyl)-1,2,4-oxadiazol-5-yl)piperidin-1-yl)-2-(4-methyl-1,2,5-oxadiazol-3-yl)ethan-1-one] belongs more than 25000 nM; to `Cc1nonc1CC(=O)N1CCC(c2noc(C34CC(F)(C3)C4)n2)CC1` [Compound 116, 1-(4-(5-(3-fluorobicyclo[1.1.1]pentan-1-yl)-1,2,4-oxadiazol-3-yl)piperidin-1-yl)-2-(4-methyl-1,2,5-oxadiazol-3-yl)ethan-1-one], 9230 nM; to `Cc1nonc1CC(=O)N1CCC(c2nc(-c3ccc(C(F)(F)F)c(F)c3)no2)CC1` [Compound 117], 278 nM.
For the compound `Cc1nonc1CC(=O)N1CCC(c2nc(-c3ccc(Cl)c(F)c3)no2)CC1` [Compound 118, 1-(4-(3-(4-chloro-3-fluorophenyl)-1,2,4-oxadiazol-5-yl)piperidin-1-yl)-2-(4-methyl-1,2,5-oxadiazol-3-yl)ethan-1-one], the half-maximal effective concentration (EC50) was 80.5 nM.
Next, `Cc1nonc1CC(=O)N1CCC(c2nc(-c3cc(F)cc(Cl)c3)no2)CC1` [Compound 119, 1-(4-(3-(3-chloro-5-fluorophenyl)-1,2,4-oxadiazol-5-yl)piperidin-1-yl)-2-(4-methyl-1,2,5-oxadiazol-3-yl)ethan-1-one]: 470 nM; `Cc1nonc1CC(=O)N1CCC(c2nc(-c3ccc(Cl)cc3F)no2)CC1` [Compound 120, 1-(4-(3-(4-chloro-2-fluorophenyl)-1,2,4-oxadiazol-5-yl)piperidin-1-yl)-2-(4-methyl-1,2,5-oxadiazol-3-yl)ethan-1-one]: 370 nM; `Cc1nonc1CC(=O)N1CCC(c2nc(-c3ccc(F)cc3Cl)no2)CC1` [Compound 121, 1-(4-(3-(2-chloro-4-fluorophenyl)-1,2,4-oxadiazol-5-yl)piperidin-1-yl)-2-(4-methyl-1,2,5-oxadiazol-3-yl)ethan-1-one]: 380 nM.
With `Cc1nonc1CC(=O)N1CCC(c2nc(-c3ccc(F)cc3F)no2)CC1` [Compound 122, 1-(4-(3-(2,4-difluorophenyl)-1,2,4-oxadiazol-5-yl)piperidin-1-yl)-2-(4-methyl-1,2,5-oxadiazol-3-yl)ethan-1-one], the EC50 worked out at 390 nM.
For the compound `Cc1nonc1CC(=O)N1CCC(c2nc(-c3ccc(F)cc3C(F)(F)F)no2)CC1` [Compound 123], the EC50 is 1480 nM.
To `Cc1nonc1CC(=O)N1CCC(c2nc(-c3ccc(F)c(C(F)(F)F)c3)no2)CC1` [Compound 124] belongs 334 nM; to `Cc1nonc1CC(=O)N1CCC(c2nc(-c3ccc(F)c(OC(F)(F)F)c3)no2)CC1` [Compound 125], 288 nM.
Next, `Cc1nonc1CC(=O)N1CCC(n2ccc(-c3ccc(F)cc3)n2)CC1` [Compound 127, 1-(4-(3-(4-fluorophenyl)-1H-pyrazol-1-yl)piperidin-1-yl)-2-(4-methyl-1,2,5-oxadiazol-3-yl)ethan-1-one]: 2970 nM; `Cc1nonc1CC(=O)N1CCC(n2cc(-c3ccc(F)cc3)nn2)CC1` [Compound 128, 1-(4-(4-(4-fluorophenyl)-1H-1,2,3-triazol-1-yl)piperidin-1-yl)-2-(4-methyl-1,2,5-oxadiazol-3-yl)ethan-1-one]: more than 10000 nM; `Cc1nonc1CC(=O)N1CCC(c2nnc(-c3ccc(F)cc3)o2)CC1` [Compound 129, 1-(4-(5-(4-fluorophenyl)-1,3,4-oxadiazol-2-yl)piperidin-1-yl)-2-(4-methyl-1,2,5-oxadiazol-3-yl)ethan-1-one]: more than 10000 nM.
Next, `Cc1nonc1CC(=O)N1CCC(c2nc(-c3ccc(F)cc3)no2)CC1` [Compound 130, 1-(4-(3-(4-fluorophenyl)-1,2,4-oxadiazol-5-yl)piperidin-1-yl)-2-(4-methyl-1,2,5-oxadiazol-3-yl)ethan-1-one]: 275 nM; `Cc1nonc1CC(=O)N1CCC(c2noc(-c3ccc(F)cc3)n2)CC1` [Compound 132, 1-(4-(5-(4-fluorophenyl)-1,2,4-oxadiazol-3-yl)piperidin-1-yl)-2-(4-methyl-1,2,5-oxadiazol-3-yl)ethan-1-one]: 1070 nM; `Cc1nonc1CC(=O)N1CCC(c2nc(-c3ccc(F)cc3)co2)CC1` [Compound 134, 1-(4-(4-(4-fluorophenyl)oxazol-2-yl)piperidin-1-yl)-2-(4-methyl-1,2,5-oxadiazol-3-yl)ethan-1-one]: 1430 nM.
With `Cc1nonc1CC(=O)N1CCC(c2cc(-c3ccc(F)cc3)no2)CC1` [Compound 135, 1-(4-(3-(4-fluorophenyl)isoxazol-5-yl)piperidin-1-yl)-2-(4-methyl-1,2,5-oxadiazol-3-yl)ethan-1-one], the concentration giving a half-maximal response (EC50) came out at 1580 nM.
Next, `Cc1nonc1CC(=O)N1CCC(C)(c2nc(-c3ccc(F)cc3)no2)CC1` [Compound 138, 1-(4-(3-(4-fluorophenyl)-1,2,4-oxadiazol-5-yl)-4-methylpiperidin-1-yl)-2-(4-methyl-1,2,5-oxadiazol-3-yl)ethan-1-one]: 1470 nM; `Cc1nonc1CC(=O)N1CCC(c2nc(-c3ccc(F)cc3)no2)(C(F)(F)F)CC1` [Compound 139, 1-(4-(3-(4-fluorophenyl)-1,2,4-oxadiazol-5-yl)-4-(trifluoromethyl)piperidin-1-yl)-2-(4-methyl-1,2,5-oxadiazol-3-yl)ethan-1-one]: more than 10000 nM.
Next, `Cc1nonc1CC(=O)N1CCC(O)(c2nc(-c3ccc(F)cc3)no2)CC1` [Compound 140, 1-(4-(3-(4-fluorophenyl)-1,2,4-oxadiazol-5-yl)-4-hydroxypiperidin-1-yl)-2-(4-methyl-1,2,5-oxadiazol-3-yl)ethan-1-one]: 685 nM; `Cc1nonc1CC(=O)N1CCC(c2nc(-c3ccc(F)cn3)no2)CC1` [Compound 141, 1-(4-(3-(5-fluoropyridin-2-yl)-1,2,4-oxadiazol-5-yl)piperidin-1-yl)-2-(4-methyl-1,2,5-oxadiazol-3-yl)ethan-1-one]: more than 10000 nM; `Cc1nonc1CC(=O)N1CCC(c2nc(Cc3ccc(F)cc3)no2)CC1` [Compound 142, 1-(4-(3-(4-fluorobenzyl)-1,2,4-oxadiazol-5-yl)piperidin-1-yl)-2-(4-methyl-1,2,5-oxadiazol-3-yl)ethan-1-one]: 6640 nM.

For orientation: EC50 means the midpoint of the concentration-response curve.
